Counter-ions that a name gives are not always drawn.
Legend:
Conditions in all cases: serial twofold dilution assay; higher well number indicates higher activity
[1] = target: T1, activated human C1 (Homo sapiens, UniProt P09871); experiment: Test Code 026 (C1 inhibitor); format: biochemical
T1 construct: functional test of fluid-phase human C2 destruction in presence of C4
Text: (§1) An active inhibitor protects C2 from C1 and C4; (ii) Test Cod3 035 (3-C9 inhibitor)--This test determines the ability of the late components of human complement (C3-C9) to lyse EAC 142 in the presence of appropriate dilutions of the test compound. An active inhibitor protects EAC 142 from lysis by human C3-C9; (iii) Test Code 036 (C-Shunt inhibitor)--In this test human erythrocytes rendered fragile are lysed in autologous serum via the shunt pathway activated by cobra venom factor in the presence of appropriate dilutions of the test compound. Inhibition of the shunt pathway results in failure of lysis; (iv) Forssman Vasculitis Test--Here, the well known complement dependent lesion, Forssman vasculitis, is produced in guinea pigs by intradermal injection of rabbit anti-Forssman antiserum. The lesion is measured in terms of diameter, edema and hemorrhage and the extent to which a combined index of these is inhibited by prior intraperitoneal injection of the test compound at 200 mg/kg is then reported, unless otherwise stated; (v) Forssman Shock Test--Lethal shock is produced in guinea pigs by an i.v. injection of anti-Forssman antiserum and the harmonic mean death time of treated guinea pigs is compared with that of simultaneous controls; (vi) Complement Level Reduction Test--In this test, the above dosed guinea pigs, or others, are bled for serum and the complement level is determined in undiluted serum by the capillary tube method of U.S. Pat. No. 3,876,376 and compared to undosed control guinea pigs; (vii) Cap 50 Test--Here, appropriate amounts of the test compound are added to a pool of guinea pig serum in vitro, after which the undiluted serum capillary tube assay referred to above is run. The concentration of compound inhibiting 50% is reported;
(§2) **Activity in wells, a serial dilution assay; higher well number indicate
(§3) higher activity. The serial dilutions are twofold

[2] = test system: late components of human complement (C3-C9); experiment: Test Code 035 (C3-C9 inhibitor; C-Late), lysis of EAC 142; format: cell-based
Text: as §1, §2, §3

[3] = test system: shunt pathway activated by cobra venom factor; experiment: Test Code 036 (C-Shunt inhibitor), lysis of human erythrocytes by cobra venom factor; format: cell-based
Text: as §1, §2, §3

T1 sequence (P09871 16-688): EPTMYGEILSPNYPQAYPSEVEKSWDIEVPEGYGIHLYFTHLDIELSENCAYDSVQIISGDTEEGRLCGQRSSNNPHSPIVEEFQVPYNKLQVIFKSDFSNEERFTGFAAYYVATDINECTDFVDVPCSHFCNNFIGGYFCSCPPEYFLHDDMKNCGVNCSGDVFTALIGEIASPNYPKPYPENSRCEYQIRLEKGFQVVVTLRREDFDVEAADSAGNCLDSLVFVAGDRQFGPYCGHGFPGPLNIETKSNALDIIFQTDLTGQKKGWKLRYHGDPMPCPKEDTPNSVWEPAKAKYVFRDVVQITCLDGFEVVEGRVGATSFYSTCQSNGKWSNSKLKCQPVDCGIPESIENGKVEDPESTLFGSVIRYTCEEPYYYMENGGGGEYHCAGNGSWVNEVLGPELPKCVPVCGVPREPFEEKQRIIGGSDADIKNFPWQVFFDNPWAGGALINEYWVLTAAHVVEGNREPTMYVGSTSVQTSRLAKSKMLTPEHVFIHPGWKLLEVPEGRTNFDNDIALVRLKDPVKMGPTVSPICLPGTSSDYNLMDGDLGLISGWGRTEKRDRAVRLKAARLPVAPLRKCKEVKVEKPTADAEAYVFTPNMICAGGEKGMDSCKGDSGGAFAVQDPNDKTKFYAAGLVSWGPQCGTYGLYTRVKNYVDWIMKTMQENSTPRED
T1 sequence (P00736 18-705 partner): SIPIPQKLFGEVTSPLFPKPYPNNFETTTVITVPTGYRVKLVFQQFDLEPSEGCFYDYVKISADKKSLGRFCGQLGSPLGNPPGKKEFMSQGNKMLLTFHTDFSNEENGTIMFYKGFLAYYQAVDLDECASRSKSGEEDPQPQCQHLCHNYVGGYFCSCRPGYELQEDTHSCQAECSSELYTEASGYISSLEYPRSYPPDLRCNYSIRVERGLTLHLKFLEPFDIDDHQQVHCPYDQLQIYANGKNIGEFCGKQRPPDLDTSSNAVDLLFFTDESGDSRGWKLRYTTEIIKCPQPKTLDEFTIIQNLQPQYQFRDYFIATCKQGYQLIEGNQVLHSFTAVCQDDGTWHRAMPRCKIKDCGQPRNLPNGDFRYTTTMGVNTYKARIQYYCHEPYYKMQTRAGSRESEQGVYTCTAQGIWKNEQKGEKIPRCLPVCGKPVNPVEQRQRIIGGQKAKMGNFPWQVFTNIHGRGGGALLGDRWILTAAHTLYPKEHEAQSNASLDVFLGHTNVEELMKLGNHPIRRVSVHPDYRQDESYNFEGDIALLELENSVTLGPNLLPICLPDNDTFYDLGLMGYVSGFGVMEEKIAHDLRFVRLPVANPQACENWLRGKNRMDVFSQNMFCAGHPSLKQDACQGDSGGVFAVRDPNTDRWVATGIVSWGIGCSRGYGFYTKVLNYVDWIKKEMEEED
T1 sequence (P02745 23-245 partner): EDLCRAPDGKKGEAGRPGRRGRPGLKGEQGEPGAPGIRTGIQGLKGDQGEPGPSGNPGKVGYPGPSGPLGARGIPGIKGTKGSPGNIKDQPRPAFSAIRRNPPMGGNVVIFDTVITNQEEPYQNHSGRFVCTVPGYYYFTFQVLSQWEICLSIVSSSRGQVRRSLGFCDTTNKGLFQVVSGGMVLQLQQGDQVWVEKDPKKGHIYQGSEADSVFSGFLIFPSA
T1 sequence (P02746 28-253 partner): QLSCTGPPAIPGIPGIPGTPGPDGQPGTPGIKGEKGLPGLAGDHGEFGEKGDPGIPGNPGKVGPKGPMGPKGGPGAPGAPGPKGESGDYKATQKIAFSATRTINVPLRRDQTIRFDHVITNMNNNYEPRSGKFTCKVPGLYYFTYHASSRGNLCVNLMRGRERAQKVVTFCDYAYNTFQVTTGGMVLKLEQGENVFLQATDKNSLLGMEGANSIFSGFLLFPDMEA
T1 sequence (P02747 29-245 partner): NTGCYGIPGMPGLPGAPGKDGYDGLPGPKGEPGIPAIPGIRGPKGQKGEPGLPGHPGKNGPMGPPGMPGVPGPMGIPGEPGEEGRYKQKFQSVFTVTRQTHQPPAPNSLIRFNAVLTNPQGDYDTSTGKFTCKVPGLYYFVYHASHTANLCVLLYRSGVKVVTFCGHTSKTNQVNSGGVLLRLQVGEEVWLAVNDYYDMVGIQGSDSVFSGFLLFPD

| Structure (SMILES) | C1 026* Wells [1] | C-Late 035* Wells [2] | Shunt Inhibition 036* Wells [3] |
| --- | --- | --- | --- |
| O=S(=O)(O)OC[C@H]1O[C@@H](OC[C@H]2O[C@H](OC[C@H]3OC(OS(=O)(=O)O)[C@H](OS(=O)(=O)O)[C@@H](OS(=O)(=O)O)[C@@H]3OS(=O)(=O)O)[C@H](OS(=O)(=O)O)[C@@H](OS(=O)(=O)O)[C@H]2OS(=O)(=O)O)[C@H](OS(=O)(=O)O)[C@@H](OS(=O)(=O)O)[C@@H]1O[C@H]1O[C@H](COS(=O)(=O)O)[C@@H](O[C@H]2O[C@H](COS(=O)(=O)O)[C@@H](O[C@H]3O[C@H](COS(=O)(=O)O)[C@@H](O[C@H]4O[C@H](COS(=O)(=O)O)[C@@H](O[C@H]5O[C@H](COS(=O)(=O)O)[C@@H](O[C@H]6O[C@H](COS(=O)(=O)O)[C@@H](OS(=O)(=O)O)[C@H](OS(=O)(=O)O)[C@H]6OS(=O)(=O)O)[C@H](OS(=O)(=O)O)[C@H]5OS(=O)(=O)O)[C@H](OS(=O)(=O)O)[C@H]4OS(=O)(=O)O)[C@H](OS(=O)(=O)O)[C@H]3OS(=O)(=O)O)[C@H](OS(=O)(=O)O)[C@H]2OS(=O)(=O)O)[C@H](OS(=O)(=O)O)[C@H]1OS(=O)(=O)O (stereo partly drawn) [(glc →1α,4)6 glc →1β,6 gal →1α,6 glc nonacosakis (H-sulfate)] [(Glc 1α,4)6 glc 1β,6 gal 1α,6 glc nonacosakis (H-sulfate) nonacosasalt with trimethylamine] | +10 Wells | +1 Wells | +5 Wells |
| O=S(=O)(O)OC[C@H]1O[C@@H](OC[C@H]2O[C@H](OC[C@H]3OC(OS(=O)(=O)O)[C@H](OS(=O)(=O)O)[C@@H](OS(=O)(=O)O)[C@@H]3OS(=O)(=O)O)[C@H](OS(=O)(=O)O)[C@@H](OS(=O)(=O)O)[C@H]2OS(=O)(=O)O)[C@H](OS(=O)(=O)O)[C@@H](OS(=O)(=O)O)[C@@H]1O[C@H]1O[C@H](COS(=O)(=O)O)[C@@H](O[C@H]2O[C@H](COS(=O)(=O)O)[C@@H](O[C@H]3O[C@H](COS(=O)(=O)O)[C@@H](O[C@H]4O[C@H](COS(=O)(=O)O)[C@@H](O[C@H]5O[C@H](COS(=O)(=O)O)[C@@H](O[C@H]6O[C@H](COS(=O)(=O)O)[C@@H](OS(=O)(=O)O)[C@H](OS(=O)(=O)O)[C@H]6OS(=O)(=O)O)[C@H](OS(=O)(=O)O)[C@H]5OS(=O)(=O)O)[C@H](OS(=O)(=O)O)[C@H]4OS(=O)(=O)O)[C@H](OS(=O)(=O)O)[C@H]3OS(=O)(=O)O)[C@H](OS(=O)(=O)O)[C@H]2OS(=O)(=O)O)[C@H](OS(=O)(=O)O)[C@H]1OS(=O)(=O)O (stereo partly drawn) [(glc →1α,4)6 glc →1β,6 gal →1α,6 nonacosakis (H-sulfate), no] [(Glc 1α,4)6 glc 1β,6 gal 1α,6 glc nonacosakis (H-sulfate) nonacosasodium salt] | +9 Wells | +3 Wells | +5 Wells |
| O=S(=O)(O)OC[C@H]1O[C@@H](OC[C@H]2O[C@H](OC[C@H]3O[C@H](OS(=O)(=O)O)[C@H](OS(=O)(=O)O)[C@@H](OS(=O)(=O)O)[C@@H]3OS(=O)(=O)O)[C@H](OS(=O)(=O)O)[C@@H](OS(=O)(=O)O)[C@H]2OS(=O)(=O)O)[C@H](OS(=O)(=O)O)[C@@H](OS(=O)(=O)O)[C@@H]1O[C@H]1O[C@H](COS(=O)(=O)O)[C@@H](O[C@H]2O[C@H](COS(=O)(=O)O)[C@@H](OS(=O)(=O)O)[C@H](OS(=O)(=O)O)[C@H]2OS(=O)(=O)O)[C@H](OS(=O)(=O)O)[C@H]1OS(=O)(=O)O [(glc →1α,4) 2 glc →1β,6 gal →1α,6 heptadecakis (H-sulfate), ] [(Glc 1α,4)2 glc 1β,6 gal 1α,6 glc heptadecakis (H-sulfate) heptadecasalt with trimethylamine] | +9 Wells | +1 Wells | – |
| O=S(=O)(O)OC[C@H]1O[C@@H](OC[C@H]2O[C@H](OC[C@H]3O[C@H](OS(=O)(=O)O)[C@H](OS(=O)(=O)O)[C@@H](OS(=O)(=O)O)[C@@H]3OS(=O)(=O)O)[C@H](OS(=O)(=O)O)[C@@H](OS(=O)(=O)O)[C@H]2OS(=O)(=O)O)[C@H](OS(=O)(=O)O)[C@@H](OS(=O)(=O)O)[C@@H]1O[C@@H]1O[C@H](COS(=O)(=O)O)[C@@H](OS(=O)(=O)O)[C@H](OS(=O)(=O)O)[C@H]1OS(=O)(=O)O [glc →1β,4 glc →1β,6 gal →1α,6 glc tetradecakis (H-sulfate), ] [Glc 1β,4 glc 1β,6 gal 1α,6 glc tetradecakis (H-sulfate), tetradecasodium salt] | +9 Wells | – | – |
| O=S(=O)(O)OC[C@H]1O[C@@H](OC[C@H]2O[C@H](OC[C@H]3O[C@H](OS(=O)(=O)O)[C@H](OS(=O)(=O)O)[C@@H](OS(=O)(=O)O)[C@@H]3OS(=O)(=O)O)[C@H](OS(=O)(=O)O)[C@@H](OS(=O)(=O)O)[C@H]2OS(=O)(=O)O)[C@H](OS(=O)(=O)O)[C@@H](OS(=O)(=O)O)[C@@H]1O[C@@H]1O[C@H](COS(=O)(=O)O)[C@@H](OS(=O)(=O)O)[C@H](OS(=O)(=O)O)[C@H]1OS(=O)(=O)O [glc →1β,4 glc →1β,6 gal →1α,6 glc tetradicakis (H-sulfate), ] [Glc 1β,4 glc 1β,6 gal 1α,6 glc tetradecakis (H-sulfate), tetradecasalt with trimethylamine] | +9 Wells | – | +4 Wells |
| O=S(=O)(O)OC[C@H]1O[C@H](OC[C@H]2O[C@@H](OC[C@H]3O[C@H](OC[C@H]4O[C@H](OS(=O)(=O)O)[C@H](OS(=O)(=O)O)[C@@H](OS(=O)(=O)O)[C@@H]4OS(=O)(=O)O)[C@H](OS(=O)(=O)O)[C@@H](OS(=O)(=O)O)[C@H]3OS(=O)(=O)O)[C@H](OS(=O)(=O)O)[C@@H](OS(=O)(=O)O)[C@@H]2OS(=O)(=O)O)[C@H](OS(=O)(=O)O)[C@@H](OS(=O)(=O)O)[C@H]1OS(=O)(=O)O [gal →1α,6 glc →1β,6 gal →1α,6 tetradecakis (H-sulfate), tetr] [Gal 1α,6 glc 1β,6 gal 1α,6 glc tetradecakis (H-sulfate), tetradecasalt with trimethylamine] | +9 Wells | +1 Wells | +5 Wells |
| O=S(=O)(O)OC[C@H]1O[C@H](OC[C@H]2OC(OS(=O)(=O)O)[C@H](OS(=O)(=O)O)[C@@H](OS(=O)(=O)O)[C@@H]2OS(=O)(=O)O)[C@H](OS(=O)(=O)O)[C@@H](OS(=O)(=O)O)[C@H]1OS(=O)(=O)O (stereo partly drawn) [Gal 1α,6 glc octakis (H-sulfate), octasodium salt] | +8 Wells | – | – |
| O=S(=O)(O)OC[C@H]1O[C@H](OC[C@H]2O[C@@H](OC[C@H]3O[C@H](OC[C@H]4O[C@H](OS(=O)(=O)O)[C@H](OS(=O)(=O)O)[C@@H](OS(=O)(=O)O)[C@@H]4OS(=O)(=O)O)[C@H](OS(=O)(=O)O)[C@@H](OS(=O)(=O)O)[C@H]3OS(=O)(=O)O)[C@H](OS(=O)(=O)O)[C@@H](OS(=O)(=O)O)[C@@H]2OS(=O)(=O)O)[C@H](OS(=O)(=O)O)[C@@H](OS(=O)(=O)O)[C@H]1OS(=O)(=O)O [gal →1α,6 glc → 1β,6 gal →1α,6 glc tetradecakis (H-sulfate),] [Gal 1α,6 glc 1β,6 gal 1α,6 glc tetradecakis (H-sulfate), tetradecasodium salt] | +9 Wells | +1 Wells | +6 Wells |
| O=S(=O)(O)OC[C@H]1O[C@@H](OC[C@H]2O[C@H](OC[C@H]3OC(OS(=O)(=O)O)[C@H](OS(=O)(=O)O)[C@@H](OS(=O)(=O)O)[C@@H]3OS(=O)(=O)O)[C@H](OS(=O)(=O)O)[C@@H](OS(=O)(=O)O)[C@H]2OS(=O)(=O)O)[C@H](OS(=O)(=O)O)[C@@H](OS(=O)(=O)O)[C@@H]1O[C@H]1O[C@H](COS(=O)(=O)O)[C@@H](OS(=O)(=O)O)[C@H](OS(=O)(=O)O)[C@H]1OS(=O)(=O)O (stereo partly drawn) [glc →1α,4 glc →1β,6 gal →1α,6 glc tetradecakis (H-sulfate), ] [Glc 1α,4 glc 1β,6 gal 1α,6 glc tetradecakis (H-sulfate), tetradecasalt with trimethylamine] | – | +1 Wells | – |
| O=S(=O)(O)OC[C@H]1O[C@@H](OC[C@H]2O[C@H](OC[C@H]3O[C@H](OS(=O)(=O)O)[C@H](OS(=O)(=O)O)[C@@H](OS(=O)(=O)O)[C@@H]3OS(=O)(=O)O)[C@H](OS(=O)(=O)O)[C@@H](OS(=O)(=O)O)[C@H]2OS(=O)(=O)O)[C@H](OS(=O)(=O)O)[C@@H](OS(=O)(=O)O)[C@H]1OS(=O)(=O)O [gal →1β,6 gal →1α,6 glc undecakis -sulfate), undecasalt with] [Gal 1β,6 gal 1α,6 glc undecakis (H-sulfate), undecasalt with trimethylamine] | +9 Wells | – | – |
| O=S(=O)(O)OC[C@H]1O[C@@H](OC[C@H]2O[C@H](OC[C@H]3O[C@H](OS(=O)(=O)O)[C@H](OS(=O)(=O)O)[C@@H](OS(=O)(=O)O)[C@@H]3OS(=O)(=O)O)[C@H](OS(=O)(=O)O)[C@@H](OS(=O)(=O)O)[C@H]2OS(=O)(=O)O)[C@H](OS(=O)(=O)O)[C@@H](OS(=O)(=O)O)[C@H]1OS(=O)(=O)O [gal →1β,6 gal →1α,6 glc undecakis -sulfate), undecasodium sa] [Gal 1β,6 gal 1α,6 glc undecakis (H-sulfate), undecasodium salt] | +9 Wells | – | – |
